Reference: US10392385B2, “N-((1-phenyl-9H-pyrido[3,4-b]indol-3-yl)methyl)cinnamamides as potential anticancer agents and preparation thereof” (Council of Scientific & Industrial Research, priority 2016, dated 2019)

Experiments:
MCF-7 (breast cancer) = assay: MTT cytotoxicity assay, MCF-7; assay type: cell-based; conditions: Homo sapiens, MCF7, average of three experiments
Source text: (§1) The N-((1-phenyl-9H-pyrido[3,4-b]indol-3-yl)methyl)cinnamamides (1a-h, 2a-h and 3a-h) have been tested against five human cancer cell lines such as A549 (lung cancer), MCF-7 (breast cancer), B16 (melanoma), HeLa (cervical cancer) and NIH3T3 (mouse embryonic fibroblast cancer). All the cancer cell lines (HeLa, A549, MCF-7 and B16) were procured from National Centre for Cell Sciences (NCCS, Pune, India) and NIH 3T3 cell line was obtained from American Type Culture Collection (Rockville, Md., USA). Stock cells were cultured in DMEM supplemented with 10% Fetal Bovine Serum (FBS), in an humidified atmosphere of 5% CO2 at 37° C. until they are 80% confluent. To study the cytotoxicity of the compounds, after 80% confluence, cells were trypsinized with 0.1% trypsin-EDTA and harvested by centrifugation at 500×g. Serial dilutions of cells were made from 1×10^6 to 1×10^3 cells per mL The cells were seeded in triplicate in a 96 well plate. […]. […] The cell viability was determined by measuring the ability of cells to transform MTT to a purple coloured formazan dye. The absorbance of samples at 570 nm was measured using a UV-Visible spectrophotometer. Percentage of viable cells was calculated by using the formula given below.
(§2) Where the OD570 (sample) corresponds to absorbance obtained from the wells treated with compound and OD570 (control) represents the absorbance from the wells in which no compound was added. For these compounds results are expressed as half maximal inhibitory concentration (IC50) values and the anticancer activity data of 1a-h, 2a-h and 3a-h are shown in Table 2.

HeLa (cervical cancer) = assay: MTT cytotoxicity assay, HeLa; assay type: cell-based; conditions: Homo sapiens, of drug treatment (footnote), average of three experiments
Source text: as §1, §2

B16 (melanoma) = assay: MTT cytotoxicity assay, B16; assay type: cell-based; conditions: 48 h of drug treatment (footnote), average of three experiments
Source text: as §1, §2

A549 (lung cancer) = assay: MTT cytotoxicity assay, A549; assay type: cell-based; conditions: Homo sapiens, 48 h of drug treatment (footnote), average of three experiments
Source text: as §1
Where the OD570 (sample) corresponds to absorbance obtained from the wells treated with compound and OD570 (control) represents the absorbance from the wells in which no compound was added.

[1] = test system: NIH3T3 (mouse embryonic fibroblast cell line); assay: MTT cytotoxicity assay, NIH3T3; assay type: cell-based; conditions: 48 h of drug treatment (footnote), average of three experiments
Source text: as §1, §2

Row | melting point [°C] | SMILES | IC50 (MCF-7 (breast cancer)) [nM] | IC50 (HeLa (cervical cancer)) [nM] | IC50 (B16 (melanoma)) [nM] | IC50 (A549 (lung cancer)) [nM] | IC50 [1] [nM]
1 | 228 to 230 | COc1ccc(OC)c(/C=C/C(=O)NCc2cc3c([nH]c4ccccc43)c(-c3cccc(F)c3)n2)c1 [Compound 1e, (E)-3-(2,5-dimethoxyphenyl)-N-((1-(3-fluorophenyl)-9H-pyrido[3,4-b]indol-3-yl)methyl)acrylamide] | 17.5 ± 0.3 | 21.87 ± 0.2 | 19.9 ± 0.7 | 22.2 ± 1.1 | 39.6 ± 1.8
2 | 230 to 232 | COc1ccc(-c2nc(CNC(=O)/C=C/c3cc(F)cc(F)c3)cc3c2[nH]c2ccccc23)cc1 [Compound 3d, (E)-3-(3,5-difluorophenyl)-N-((1-(4-methoxyphenyl)-9H-pyrido[3,4-b]indol-3-yl)methyl)acrylamide] | 17.2 ± 1.2 | 24.6 ± 0.4 | 23.87 ± 0.2 | 20 ± 1.1 | 37.5 ± 1.3
3 | 258 to 264 | O=C(/C=C/c1ccc(F)cc1)NCc1cc2c([nH]c3ccccc32)c(-c2cccc(F)c2)n1 [Compound 1c, (E)-3-(4-fluorophenyl)-N-((1-(3-fluorophenyl)-9H-pyrido[3,4-b]indol-3-yl)methyl)acrylamide] | 16.5 ± 1.8 | 24.3 ± 0.6 | 16.8 ± 0.8 | 16.3 ± 0.3 | 30.8 ± 2.1
4 | 145 to 148 | COc1ccc(-c2nc(CNC(=O)/C=C/c3ccc(F)cc3)cc3c2[nH]c2ccccc23)cc1 [Compound 3c, (E)-3-(4-fluorophenyl)-N-((1-(4-methoxyphenyl)-9H-pyrido[3,4-b]indol-3-yl)methyl)acrylamide] | 18.2 ± 0.7 | 22.8 ± 0.6 | 21.9 ± 0.3 | 20.2 ± 1.3 | 36.9 ± 1.6
5 | 255 to 258 | O=C(/C=C/c1ccc(Cl)c(Cl)c1)NCc1cc2c([nH]c3ccccc32)c(-c2cccc(F)c2)n1 [Compound 1b, (E)-3-(3,4-dichlorophenyl)-N-((1-(3-fluorophenyl)-9H-pyrido[3,4-b]indol-3-yl)methyl)acrylamide] | 17 ± 1.2 | 24.9 ± 0.4 | 18.9 ± 0.4 | 18 ± 0.8 | 39 ± 1.1
6 | 248 to 250 | O=C(/C=C/c1ccc(Cl)cc1)NCc1cc2c([nH]c3ccccc32)c(-c2cccc(F)c2)n1 [Compound 1f, (E)-3-(4-chlorophenyl)-N-((1-(3-fluorophenyl)-9H-pyrido[3,4-b]indol-3-yl)methyl)acrylamide] | 18.3 ± 0.8 | 19.2 ± 0.6 | 18.2 ± 1.3 | 19.6 ± 1.6 | 43.6 ± 1.1
7 | 142 to 148 | O=C(/C=C/c1cccc(O)c1)NCc1cc2c([nH]c3ccccc32)c(-c2cccc(F)c2)n1 [Compound 1h, (E)-N-((1-(3-fluorophenyl)-9H-pyrido[3,4-b]indol-3-yl)methyl)-3-(3-hydroxyphenyl)acrylamide] | 19.2 ± 0.6 | 27 ± 0.5 | 24.9 ± 0.5 | 23.4 ± 0.8 | 35.7 ± 2.2

Second part, the compound before the results:

Row | SMILES | melting point [°C] | IC50 (MCF-7 (breast cancer)) [nM] | IC50 (HeLa (cervical cancer)) [nM] | IC50 (B16 (melanoma)) [nM] | IC50 (A549 (lung cancer)) [nM] | IC50 [1] [nM]
8 | COc1ccc(-c2nc(CNC(=O)/C=C/c3ccc(Cl)cc3)cc3c2[nH]c2ccccc23)cc1 [Compound 3f, (E)-3-(4-chlorophenyl)-N-((1-(4-methoxyphenyl)-9H-pyrido[3,4-b]indol-3-yl)methyl)acrylamide] |  | 14.1 | 21.6 ± 0.6 | 16.6 ± 0.5 | 18.9 ± 1.1 | 38.3 ± 1.3
9 | COc1ccc(OC)c(/C=C/C(=O)NCc2cc3c([nH]c4ccccc43)c(-c3cc(OC)c(OC)c(OC)c3)n2)c1 [Compound 2e, (E)-3-(2,5-dimethoxyphenyl)-N-((1-(3,4,5-trimethoxyphenyl)-9H-pyrido[3,4-b]indol-3-yl)methyl)acrylamide] | 148 to 150 | 17.2 ± 0.6 | 25.09 ± 0.2 | 19.2 ± 1.4 | 18.8 ± 1.4 | 39 ± 1.9
10 | COc1cc(/C=C/C(=O)NCc2cc3c([nH]c4ccccc43)c(-c3cc(OC)c(OC)c(OC)c3)n2)ccc1O [Compound 2g, (E)-3-(4-hydroxy-3-methoxyphenyl)-N-((1-(3,4,5-trimethoxyphenyl)-9H-pyrido[3,4-b]indol-3-yl)methyl)acrylamide] | 175 to 178 | 17.6 ± 0.7 | 26 ± 0.3 | 19 ± 0.9 | 18.3 ± 1.4 | 43.1 ± 1.3
11 | COc1ccc(-c2nc(CNC(=O)/C=C/c3cccc(O)c3)cc3c2[nH]c2ccccc23)cc1 [Compound 3h, (E)-3-(3-hydroxyphenyl)-N-((1-(4-methoxyphenyl)-9H-pyrido[3,4-b]indol-3-yl)methyl)acrylamide] |  | 13.8 | 22.3 ± 0.3 | 16.3 ± 0.3 | 18.9 ± 1.4 | 37.2 ± 1.1
12 | COc1cc(-c2nc(CNC(=O)/C=C/c3cccc(O)c3)cc3c2[nH]c2ccccc23)cc(OC)c1OC [Compound 2h, (E)-3-(3-hydroxyphenyl)-N-((1-(3,4,5-trimethoxyphenyl)-9H-pyrido[3,4-b]indol-3-yl)methyl)acrylamide] | 175 to 178 | 16.8 ± 0.5 | 23.65 ± 0.1 | 21.8 ± 0.8 | 19.5 ± 1.5 | 38.2 ± 1.5
13 | COc1cc(-c2nc(CNC(=O)/C=C/c3ccc(Cl)cc3)cc3c2[nH]c2ccccc23)cc(OC)c1OC [Compound 2f, (E)-3-(4-chlorophenyl)-N-((1-(3,4,5-trimethoxyphenyl)-9H-pyrido[3,4-b]indol-3-yl)methyl)acrylamide] | 148 to 150 | 17.5 ± 0.9 | 26.8 ± 0.4 | 18.7 ± 1.1 | 18.9 ± 1.7 | 35.6 ± 2.1
14 | COc1ccc(-c2nc(CNC(=O)/C=C/c3cc(OC)c(OC)c(OC)c3)cc3c2[nH]c2ccccc23)cc1 [Compound 3a, (E)-N-((1-(4-methoxyphenyl)-9H-pyrido[3,4-b]indol-3-yl)methyl)-3-(3,4,5-trimethoxyphenyl)acrylamide] | 148 to 150 | 13.4 | 22.89 ± 0.2 | 17.4 ± 0.4 | 19.7 ± 0.6 | 39.3 ± 1.7
15 | COc1cc(-c2nc(CNC(=O)/C=C/c3ccc(Cl)c(Cl)c3)cc3c2[nH]c2ccccc23)cc(OC)c1OC [Compound 2b, (E)-3-(3,4-dichlorophenyl)-N-((1-(3,4,5-trimethoxyphenyl)-9H-pyrido[3,4-b]indol-3-yl)methyl)acrylamide] |  | 17.5 ± 1.4 | 25.87 ± 0.2 | 16.9 ± 0.7 | 20.4 ± 0.7 | 39.2 ± 1.9
16 | COc1cc(/C=C/C(=O)NCc2cc3c([nH]c4ccccc43)c(-c3cc(OC)c(OC)c(OC)c3)n2)cc(OC)c1OC [Compound 2a, (E)-3-(3,4,5-trimethoxyphenyl)-N-((1-(3,4,5-trimethoxyphenyl)-9H-pyrido[3,4-b]indol-3-yl)methyl)acrylamide] |  | 16.5 ± 1.1 | 23.5 ± 0.3 | 17.2 ± 0.4 | 21.3 ± 0.9 | 38.9 ± 2.5
17 | COc1ccc(-c2nc(CNC(=O)/C=C/c3cc(OC)ccc3OC)cc3c2[nH]c2ccccc23)cc1 [Compound 3e, (E)-3-(2,5-dimethoxyphenyl)-N-((1-(4-methoxyphenyl)-9H-pyrido[3,4-b]indol-3-yl)methyl)acrylamide] | 130 to 135 | 16.5 ± 0.7 | 25.4 ± 0.3 | 22.1 ± 0.4 | 18.9 ± 1.2 | 34.4 ± 1.6
